Data: ChEMBL document CHEMBL1201862, “PubChem BioAssay data set” (2004)
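Where inhibition never reached the appropriate level, the endpoint shown equals the highest concentration tested. Otherwise, values were interpolated linearly from a five-concentration, 48-hour dose response in 96-well plates. GI50 is the concentration that inhibits growth by half.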 Active and inactive are the calls of the source. Cut-off read from the data, not from the text of the source: active = GI50 up to about 1.1 µM and inactive = higher.

What was measured:
Assay in all cases: DTP human tumour cell line panel, 48 h
OVCAR-4 = system: OVCAR-4
TK-10 = system: TK-10
NCI-H226 = system: NCI-H226
HL-60 = system: HL-60
KM12 = system: KM12
UO-31 = system: UO-31
NCI-H460 = system: NCI-H460
CCRF-CEM = system: CCRF-CEM
UACC-62 = system: UACC-62
EKVX = system: EKVX
A549 = system: A549
OVCAR-8 = system: OVCAR-8
HT-29 = system: HT-29
SF-539 = system: SF-539
T47D = system: T47D
SR = system: SR
RPMI-8226 = system: RPMI-8226
COLO 205 = system: COLO 205
MDA-MB-435 = system: MDA-MB-435
NCI/ADR-RES = system: NCI/ADR-RES

Measured: GI50

CCOP(=O)(OCC)C1C(CO)OC(n2ccc(=O)[nH]c2=O)C1O (centres undefined)
inactive: OVCAR-4 74.5 µM | TK-10 > 100 µM | NCI-H226 > 100 µM | HL-60 > 100 µM | KM12 > 100 µM | UO-31 > 100 µM | NCI-H460 > 100 µM | CCRF-CEM > 10 µM | UACC-62 > 100 µM | EKVX > 100 µM | A549 > 100 µM | OVCAR-8 > 100 µM | HT-29 > 100 µM | SF-539 > 100 µM | T47D > 100 µM | SR > 100 µM | RPMI-8226 > 100 µM

BrCC[N+]12CCCN1CCC2
inactive: OVCAR-4 4.23 µM | TK-10 14.5 µM | NCI-H226 33.2 µM | COLO 205 4.14 µM | HL-60 2.9 µM | KM12 > 67.3 µM | UO-31 13.8 µM | NCI-H460 22.3 µM | CCRF-CEM 1.59 µM | UACC-62 8.83 µM | EKVX 21.6 µM | A549 41.1 µM | OVCAR-8 19 µM | HT-29 10.8 µM | SF-539 15.2 µM | T47D 9.93 µM | SR 1.68 µM | RPMI-8226 1.53 µM

NC(=O)c1cc(-c2ccc(-n3ccnc3)cc2)nnc1O
inactive: OVCAR-4 > 100 µM | TK-10 > 100 µM | COLO 205 > 100 µM | HL-60 > 100 µM | UO-31 > 100 µM | NCI-H460 > 100 µM | CCRF-CEM > 100 µM | UACC-62 > 100 µM | EKVX > 100 µM | A549 > 100 µM | OVCAR-8 > 100 µM | MDA-MB-435 > 100 µM | SF-539 > 100 µM | SR > 100 µM | RPMI-8226 > 100 µM

c1ccc(C(NCC2CCO2)(c2ccccc2)c2ccccc2)cc1 (centres undefined)
inactive: OVCAR-4 16.2 µM | TK-10 13.8 µM | NCI-H226 11.3 µM | COLO 205 39.1 µM | HL-60 19.3 µM | KM12 15 µM | UO-31 12.8 µM | NCI-H460 16.4 µM | CCRF-CEM 33.3 µM | UACC-62 14.7 µM | EKVX 16.2 µM | A549 15.2 µM | OVCAR-8 12.6 µM | NCI/ADR-RES 14.1 µM | MDA-MB-435 21.1 µM | SF-539 17.8 µM | SR 36.3 µM | RPMI-8226 30.5 µM

COc1ccc(NC(S)=Nc2ccccc2)cc1
inactive: OVCAR-4 > 100 µM | TK-10 > 100 µM | NCI-H226 > 100 µM | COLO 205 > 100 µM | HL-60 24.2 µM | UO-31 > 100 µM | NCI-H460 > 100 µM | UACC-62 > 100 µM | EKVX 96.4 µM | A549 > 100 µM | OVCAR-8 > 100 µM | NCI/ADR-RES > 100 µM | HT-29 > 100 µM | MDA-MB-435 > 100 µM | SF-539 > 100 µM | SR > 100 µM | RPMI-8226 > 100 µM

CCOC(=O)c1ncn(CCc2ccc(Cl)cc2)c1C
inactive: OVCAR-4 56.6 µM | TK-10 > 100 µM | NCI-H226 > 100 µM | COLO 205 > 100 µM | HL-60 > 100 µM | KM12 > 100 µM | UO-31 34.5 µM | NCI-H460 > 100 µM | CCRF-CEM > 100 µM | UACC-62 42.4 µM | EKVX > 100 µM | A549 > 100 µM | OVCAR-8 > 100 µM | NCI/ADR-RES 70.8 µM | HT-29 > 100 µM | MDA-MB-435 > 100 µM | SF-539 > 100 µM | SR 68.2 µM | RPMI-8226 62.7 µM
